Target: T1, Protein tyrosine phosphatase 1B (PTP1B) (Homo sapiens, UniProt P18031)
T1 sequence (P18031 1-301): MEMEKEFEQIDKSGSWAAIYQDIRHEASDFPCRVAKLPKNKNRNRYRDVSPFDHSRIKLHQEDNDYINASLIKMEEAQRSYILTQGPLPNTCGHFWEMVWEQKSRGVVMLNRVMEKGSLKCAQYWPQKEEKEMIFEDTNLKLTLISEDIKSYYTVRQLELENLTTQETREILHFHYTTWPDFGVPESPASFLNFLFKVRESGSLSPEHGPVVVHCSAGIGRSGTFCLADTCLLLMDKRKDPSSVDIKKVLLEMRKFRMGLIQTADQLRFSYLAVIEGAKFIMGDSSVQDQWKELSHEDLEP

**Q.** With O=[N+]([O-])c1ccc(OP(=O)(O)O)cc1 [pNPP, p-nitrophenyl phosphate] as the compound, how does the Km read?
**A.** 2800 ± 100 µM
